Assay results taken from patent publication US11097016B2, “Use of lyso-Gb1 as druggable target” (Centogene GmbH, priority 2016, dated 2021).
Entries after “also recorded” stand apart in the source; their conditions may differ.

Legend:
[1] = Lyso-Gb1 level in blood (dried blood spots, LC/MRM-MS) upon continuous subcutaneous administration; type: in vivo, C57BL/6JRj mice
Description: (§1) Animal experimental procedures were carried out at Pharmacelsus GmbH, Saarbrücken, Germany. Adult male C57BL/6JRj mice (10 weeks old, purchased from Janvier Labs, France) were housed in a temperature-controlled room (20-24° C.) and maintained in a 12 h light/12 h dark cycle. Food (Ssniff® R/M-H, 10 mm) and water were provided ad libitum.
All experimental procedures were approved by and conducted in accordance with the regulations of the local Animal Welfare authorities. The lyso-Gb1 stock solution was prepared in DMSO and propylene glycol at 37° C. with ultrasonic bath treatment for 10 min. Subcutaneous administration of lyso-Gb1 (Matreya LLC, USA) was achieved by the use of ALZET pumps implanted in the back of their necks and set to a flow rate of 2.64 μl/day in order to obtain a daily dosage of 10 mg lyso-Gb1/kg body weight. The pumps were loaded with the stock solution and primed prior to implantation according to the manufacturer's instructions.
(§2) Blood sampling was carried out using Li-heparine blood obtained from the lateral tail vein. At each sampling time point 2 aliquots of 20 μl were transferred to dried blood spot filter cards (Centogene AG, Rostock, Germany). After the last sampling time point the mice were sacrificed by inhalation of an overdose of isoflurane and organs were removed, frozen and collected for future examinations. Where applicable, organs were intersected. Half of the organ was immediately frozen in liquid nitrogen. The other half was formalin-fixed and paraffin-embedded for histologic analysis (Histalim, Montpellier, France).
3 punches of 3.2 mm in diameter were cut using a DBS puncher (Perkin Elmer LAS, Germany) and placed in a 2.2 ml round bottom tube (Eppendorf, Germany). 50 μl extraction solution (DMSO: water, 1:1) and 100 μI internal standard solution with the standard being dissolved in ethanol were added on top of the paper punches. Samples were mixed for 30 seconds and placed in an incubator (Heidolph, Schwabach, Germany) for 30 minutes at 37° C. under agitation at 700 rpm. […]
LC-MRM-MS analyses of the lyso-Gb1 for both DBS and organ extracts were performed using a Waters Acquity UPLC (Waters, UK) coupled with an ABSciex 5500 TripleQuad mass spectrometer (ABSciex, Darmstadt, Germany). […] The following MRM transitions were monitored: 624.3-282.2 for the internal standard (with DP of 30V, CE of 38 V and CXP of 10 V) and 462.3→282.2 for lyso-Gb1 (with DP of 28V, CE of 30 V and CXP of 10 V). MRM-MS analyses were performed in positive ion mode using the following parameters: CUR gas 40 psi, IS voltage 5.5 kV, CAD 8 psi, cone temperature 500° C., GS 1 45 psi, GS2 60 psi, EP 10 V. For all batches analyzed a standard curve was measured using 7 dilutions of lyso-Gb1 in ethanol (concentrations in ng/ml: 0; 5; 10; 50; 100; 200; 1000). […]

[2] = Lyso-Gb1 determination in organs (LC/MRM-MS); type: in vivo, C57BL/6JRj mice
Description: After extraction from the animal, the organs were immediately deep-frozen in liquid nitrogen. The samples were lyophilized (Alpha 2-4 LSC, Christ, Osterode am Harz, GER) and powdered with mortar and pistil. Fractions of 2 to 5 mg powder were established in round bottom tubes. On top of the powder, 50 μl per mg powder extraction solution was added and the sample was incubated for 5 minutes at 37° C. under agitation. Subsequently, the samples were frozen in liquid nitrogen for 30 seconds and sonicated with boost function for 5 minutes. The incubation, freezing and sonication steps were repeated 6 times. At the end the mixtures were vortexed and aliquots of 25 μl suspension were used for the lyso-Gb1 determination. Each sample was supplemented with 100 μl Internal Standard (lyso-Gb2, 200 ng/ml) and 250 μl ethanol. The samples were cooled at 4° C. for 1 h to precipitate the membrane proteins and spun in a benchtop centrifuge for 3 minutes at 14.5 krpm. The volume of each sample was quantitatively transferred to a 96-well filter plate and further processed as described above.
LC-MRM-MS analyses of the lyso-Gb1 for both DBS and organ extracts were performed using a Waters Acquity UPLC (Waters, UK) coupled with an ABSciex 5500 TripleQuad mass spectrometer (ABSciex, Darmstadt, Germany). Chromatographic run was performed on a C8 column with pore size of […] (ACE columns, Germany) using a flow rate of 0.9 ml/min preheated at 60° C. The 10 μl extract were injected on the column and the compounds were eluted using a linear gradient from 40% A (50 mM formic acid in water) to 100% B (50 mM formic acid in acetone:acetonitrile vol. 1:1). Upstream from UPLC a 3:1 flow splitter was added. The following MRM transitions were monitored: 624.3-282.2 for the internal standard (with DP of 30V, CE of 38 V and CXP of 10 V) and 462.3→282.2 for lyso-Gb1 (with DP of 28V, CE of 30 V and CXP of 10 V). MRM-MS analyses were performed in positive ion mode using the following parameters: CUR gas 40 psi, IS voltage 5.5 kV, CAD 8 psi, cone temperature 500° C., GS 1 45 psi, GS2 60 psi, EP 10 V. For all batches analyzed a standard curve was measured using 7 dilutions of lyso-Gb1 in ethanol (concentrations in ng/ml: 0; 5; 10; 50; 100; 200; 1000).
After 4 weeks from treatment start the organs of the mice were subjected to lyso-Gb1 analysis.

[3] = Lyso-Gb1 in 24 hr urine (LC/MRM-MS); type: in vivo, C57BL/6JRj mice; conditions: 6 weeks after treatment start
Description: 25 μL urine aliquots were added to 100 μL of internal standard and 250 μL ethanol. The samples were cooled to 4° C. for 1 h to precipitate the urine proteins, after which they were spun in a benchtop centrifuge for 3 minutes at 14,500 rpm. The volume of each sample was quantitatively transferred to a 96-well plate, and further processed as described above.
LC-MRM-MS analyses of the lyso-Gb1 for both DBS and organ extracts were performed using a Waters Acquity UPLC (Waters, UK) coupled with an ABSciex 5500 TripleQuad mass spectrometer (ABSciex, Darmstadt, Germany). Chromatographic run was performed on a C8 column with pore size of […] (ACE columns, Germany) using a flow rate of 0.9 ml/min preheated at 60° C. […] The following MRM transitions were monitored: 624.3-282.2 for the internal standard (with DP of 30V, CE of 38 V and CXP of 10 V) and 462.3→282.2 for lyso-Gb1 (with DP of 28V, CE of 30 V and CXP of 10 V). MRM-MS analyses were performed in positive ion mode using the following parameters: CUR gas 40 psi, IS voltage 5.5 kV, CAD 8 psi, cone temperature 500° C., GS 1 45 psi, GS2 60 psi, EP 10 V. For all batches analyzed a standard curve was measured using 7 dilutions of lyso-Gb1 in ethanol (concentrations in ng/ml: 0; 5; 10; 50; 100; 200; 1000).

[4] = Blood count analysis for systemic damage; type: in vivo, C57BL/6JRj mice
Description: Mice were exsanguinated via the retrobulbar venous plexus under isoflurane anesthesia before being sacrificed by overdose inhalation. 200 μL EDTA samples of whole blood were drawn from each animal to analyze […], leukocyte count, erythrocyte count, hemoglobin (Hb), hematocrit (PCV=packed cell volume, Hct), mean cell volume (MCV), mean cell Hb (MCH), mean cell Hb concentration. (MCHC) and platelet count (PLT) (IDEXX Bioresearch, Ludwigsburg, Germany).
3.1 It was tested whether the high lyso-Gb1 levels caused systemic damage to the animals. Such systemic damage was assessed by blood count analysis.

Organ weight analysis = type: in vivo, C57BL/6JRj mice
Description: as §2
3.2 As anemia is a frequent result of enlarged spleen, another hallmark of Gaucher disease, an organ weight analysis, a Western blot analysis and size and color analysis of the spleen was carried out. The results thereof are shown in FIG. 4A, FIG. 4B and FIG. 4C.

F4/80 and CD68 = test: Western blot of inflammatory tissue markers F4/80 and CD68 in spleen and liver; type: in vivo, C57BL/6JRj mice
Description: Livers and spleens were homogenized in RIPA buffer containing proteinase and phosphatase inhibitor (Roche, Mannheim, GER). Lysates were centrifuged at 15,000 g, 4° C. for 15 min to remove insoluble pellet, and supernatant was collected. Protein concentration was measured using Pierce BCA Protein Assay Kit (Thermo Fisher Scientific, Waltham, Mass.). Typically, […] protein was loaded for electrophoresis on a 4%-15% precast Tris-glycine gradient gel (BioRad, Mannheim, GER). The protein was subsequently transferred to a nitrocellulose membrane by semidry transfer apparatus (BioRad, Munich, GER) for immunodetection analysis. The target proteins were detected by rat anti F4/80 (1:500, Biolegend, San Diego, Calif.), rat anti-CD68 [FA-11] (1:200 abcam, Cambridge, UK) mouse anti GAPDH (1:10,000, abcam, Cambridge, UK), each in TBST supplemented with 5% skim milk powder (Sigma Aldrich, Munich, GER). Fluorescent conjugate secondary antibodies were applied for the detection with a Li-Cor Odyssey imaging system (Bad Homburg, GER).
In order to investigate the molecular changes of both spleen and liver in terms of tissue inflammation macrophagic marker proteins F4/80 and CD68 were analysed.

[5] = Histopathological evaluation (H&E) of spleen, liver and femur; type: in vivo, C57BL/6JRj mice; conditions: data not shown
Description: After removal, organs were fixed in formalin for 24 h and transferred into 70% ethanol. To ensure a non-biased comparison the same parts of organs were analysed by HISTALIM (Montpellier, France). The samples were processed on the Peloris automaton (Leica, Wetzlar, Germany) according to the 4 h program validated for mouse organs. The samples were embedded in paraffin wax according to HISTALIM procedures. For the liver, spleen and femur samples, a section (3-5 μm thickness) was prepared and deposited preferentially on Superfrost+slide (to ensure tissue adhesion) to be stained according to a validated hematoxylin/eosin (H&E) protocol. All the slides were digitalised with the Nanozoomer scanner (Hamamatsu Photonics, Hamamatsu, Japan) in conditions bright field conditions, with the objective×20, without Z stack. Slides were examined by a senior histopathologist to assess the toxicological effects of lyso-Gb1 on the tested mice.

[6] = test system: CD68 and F4/80 positive cells; test: Immunohistochemistry of spleen sections (anti-CD68, anti-F4/80); type: in vivo, C57BL/6JRj mice
Description: For immunohistochemistry 5 μm paraffin sections of the spleens of 8-week treated mice were subjected to rat anti-CD68 clone FA-11 (1:100, Bio-Rad Laboratories, Raleigh, N.C., USA) and rat anti-mouse F4/80 Cl:A3-1 (1:100, BioLegend, San Diego, Calif., USA). Sections were then deparaffinised, rehydrated and pre-treated in the microwaves in 0.1 M citrate buffer (5 min 850 W and 5 min 340 W) followed by consecutive incubation with 3% H2O2 in PBS to block endogenous peroxidases for 30 min, then 3% bovine serum albumin with 1.5% normal goat serum (NGS) in PBS for 1 h to block nonspecific epitopes. Subsequently, sections were exposed to the primary antibody in 3% NGS/PBS overnight at 4° C. Depending on the primary antibody and after washing in PBS, the sections were sequentially incubated for 1 h with the secondary anti-rat or anti-mouse IgG (1:200; Vector, Burlingame, Calif., USA), streptavidin-biotin-complex (ABC) reagent for 1 h (Vectastain-Elite; Vector, Burlingame, Calif., USA) and then finally visualised with 3,-3,-diaminobenzidine (DAB, Sigma, Munich, Germany), which was activated with H2O2. Sections were counterstained with hematoxylin, dehydrated, mounted with DePeX and coverslipped.

TNF-α and IL-1β = test: Cytokine analysis in blood (ProcartaPlex Multiplex Immunoassay); type: in vivo, mice
Description: The ProcartaPlex® Multiplex Immunoassay (ebioscience, San Diego, Calif.) was carried out following the instructions of the provider. Differences between the animal groups were obtained using automated MAGPIX® analysis device software (Luminex, Austin, Tex.) including quality control criteria.

[7] = General health, body weight and behaviour during treatment; type: in vivo, C57BL/6JRj mice
Description: as §1
Ten weeks old C57BL/6JRj mice were subcutaneously treated with high doses (10 mg*kg−1*day−1) of lyso-Gb1 for a period of up to 84 days (12 weeks).

lyso-Gb1 levels in blood ([1]; 24 hrs after treatment start (data not shown)): strongly elevated | increase of blood lyso-Gb1 level compared to the vehicle-treated mice ([1]; after 4, 8 and 12 weeks, s.c. 10 mg/kg/day): more than 500 fold | lyso-Gb1 level in blood ([1]; after 4, 8 and 12 weeks, s.c. osmotic pump, 10 mg lyso-Gb1/kg body weight daily): 700 to 900 ng/mL | concentration at 4 weeks ([1]; male, C57BL/6JRj, mouse, whole blood (dried blood spots), sc, 10 mg/kg/day, 4 weeks after begin of treatment, s.c. 10 mg*kg−1*day−1): > 500 ng/mL | organ with highest lyso-Gb1 levels ([2]; 4 weeks from treatment start): kidney and liver | lyso-Gb1 levels in peripheral organs (heart, kidney, liver, spleen) compared to control animals ([2]; 4 weeks from treatment start, 10 mg*kg^−1*day^−1): strongly elevated | increase of brain lyso-Gb1 ([2]; 4 weeks from treatment start, attributed to carryover of blood in tissue capillaries): 2 fold | calculated excretion rate of lyso-Gb1 in urine [3]: 0.6 ng/min | spleen weight versus controls (Organ weight analysis; 8 and 12 weeks from treatment initiation): enlarged | liver size in subsequent experiment (Organ weight analysis; lyso-Gb1 treatment started earlier (P20), data not shown): marked enlargement of the liver | size of heart, lung and kidney (Organ weight analysis; mouse, in vivo): normal in size | F4/80 and CD68 protein levels in liver (Western blot) (F4/80 and CD68; liver): only mild changes | H&E histological stain of spleen, liver and femur, vehicle vs lyso-Gb1 treated [5]: did not reveal significant abnormalities | number of CD68 and F4/80 positive cells in spleen sections in comparison to vehicle controls ([6]; paraffin sections from spleen): marked increase | CD68-immunoreactivity in spleen compared to vehicle controls ([6]; spleens of 8-week treated mice): strong increase | F4/80 immunoreactivity in spleen compared to vehicle controls ([6]; spleens of 8-week treated mice): increased | TNF-α and IL-1β in the blood (TNF-α and IL-1β): slight elevation | upregulation of most investigated cytokines (TNF-α and IL-1β): did not find significant upregulation
Structure (SMILES): CCCCCCCCCCCCC/C=C/[C@@H](O)[C@@H](N)CO[C@@H]1O[C@H](CO)[C@@H](O)[C@H](O)[C@H]1O [lyso-Gb1, glucosylsphingosine]
crossing of the blood brain barrier ([2]; concluded from negligible increase in brain lyso-Gb1): not able to cross the blood brain barrier | Hb (hemoglobin) values ([4]; 4, 8 and 12 weeks, 2× SD below the baseline value at each time point): mild anemia; also recorded: mild anaemia | Hct (haematocrit) values ([4]; differed at 4 and 8 weeks after treatment initiation): significantly differed; also recorded: lowered | thrombocytopenia / white blood cell abnormalities ([4]; up to 12 weeks treatment): no thrombocytopenia or abnormalities in white blood cells | liver weight versus controls (Organ weight analysis; 8 and 12 weeks): not statistically significantly different; also recorded: not statistically distinct from control animals | F4/80 and CD68 protein levels in spleen (Western blot) (F4/80 and CD68; spleen): pronounced increase; also recorded: elevated | behaviour ([7]; mouse, in vivo): no behavioral abnormalities | body weight / health status ([7]; throughout the experimental phase (up to 12 weeks)): did not lose weight
